From ChEMBL document CHEMBL3400135, “Design, synthesis and biological evaluation of novel homocamptothecin analogues as potent antitumor agents” (Bioorg Med Chem, 2015)

Legend:
Mus musculus [1] = assay: Toxicity in human HT-29 cells xenografted mouse assessed as body weight level at 0.5 mg/kg, iv dosed three times per week to the end of treatment measured on day 17 (reference value: 22 +/- 1.7 g); assay type: organism-based; set-up: dose 0.5 mg/kg, route intravenous; settings: in vivo
Mus musculus [2] = assay: Toxicity in human HT-29 cells xenografted mouse assessed as induction of anaphylactic reaction at 3 mg/kg, iv dosed three times per week to the end of treatment; assay type: organism-based; set-up: dose 3 mg/kg, route intravenous; settings: in vivo
HT-29 [3] = assay: Antitumor activity against human HT-29 cells xenografted in mouse assessed as tumor volume at 3 mg/kg, iv dosed three times per week to the end of treatment measured on day 7 (reference value: 229 +/- 57 mm3); assay type: functional
Mus musculus [4] = assay: Toxicity in human HT-29 cells xenografted mouse assessed as body weight level at 3 mg/kg, iv dosed three times per week to the end of treatment measured on day 3 (reference value: 20.7 +/- 1.2 g); assay type: organism-based; set-up: dose 3 mg/kg, route intravenous; settings: in vivo
HCT-116 = assay: Potency index, ratio of IC50 for SN38 to IC50 for compound against human HCT116 cells after 72 hrs by sulforhodamine B assay; assay type: functional
[5] = Cytotoxicity against human HCT116 cells after 72 hrs by sulforhodamine B assay; assay type: functional, cell-based, HCT-116; settings: hct-116
HT-29 [6] = assay: Cytotoxicity against human HT-29 cells after 72 hrs by sulforhodamine B assay; assay type: functional, cell-based; settings: ht-29
HT-29 [7] = assay: Antitumor activity against human HT-29 cells xenografted in mouse assessed as relative tumor increment rate at 3 mg/kg, iv dosed three times per week to the end of treatment relative to untreated control; assay type: functional
HT-29 [8] = assay: Antitumor activity against human HT-29 cells xenografted in mouse assessed as tumor volume at 3 mg/kg, iv dosed three times per week to the end of treatment measured on day 3 (reference value: 168 +/- 46 mm3); assay type: functional
[9] = Stability in human plasma assessed as lactone moieties level at 1 uM incubated at 37 degC after 3 hrs by HPLC method; assay type: ADME, cell-free; settings: read-out: Stability
HT-29 [10] = assay: Antitumor activity against human HT-29 cells xenografted in mouse assessed as tumor volume at 3 mg/kg, iv dosed three times per week to the end of treatment measured on day 10 (reference value: 386 +/- 77 mm3); assay type: functional
Mus musculus [11] = assay: Toxicity in human HT-29 cells xenografted mouse assessed as body weight change at 3 mg/kg, iv dosed three times per week to the end of treatment (reference value: 12.7%); assay type: organism-based; set-up: dose 3 mg/kg, route intravenous; settings: in vivo
HT-29 [12] = assay: Antitumor activity against human HT-29 cells xenografted in mouse assessed as tumor volume at 3 mg/kg, iv dosed three times per week to the end of treatment measured on day 17 (reference value: 807 +/- 197 mm3); assay type: functional
Mus musculus [13] = assay: Toxicity in human HT-29 cells xenografted mouse assessed as body weight level at 0.5 mg/kg, iv dosed three times per week to the end of treatment measured on day 14 (reference value: 22.7 +/- 1.5 g); assay type: organism-based; set-up: dose 0.5 mg/kg, route intravenous; settings: in vivo
Mus musculus [14] = assay: Toxicity in human HT-29 cells xenografted mouse assessed as lethal toxicity at 3 mg/kg, iv dosed three times per week to the end of treatment; assay type: organism-based; set-up: dose 3 mg/kg, route intravenous; settings: in vivo
Mus musculus [15] = assay: Toxicity in human HT-29 cells xenografted mouse assessed as body weight level at 0.5 mg/kg, iv dosed three times per week to the end of treatment measured on day 10 (reference value: 22.4 +/- 1.3 g); assay type: organism-based; set-up: dose 0.5 mg/kg, route intravenous; settings: in vivo
Mus musculus [16] = assay: Toxicity in human HT-29 cells xenografted mouse assessed as body weight level at 3 mg/kg, iv dosed three times per week to the end of treatment measured on day 21 (reference value: 21.2 +/- 1.6 g); assay type: organism-based; set-up: dose 3 mg/kg, route intravenous; settings: in vivo
HT-29 [17] = assay: Antitumor activity against human HT-29 cells xenografted in mouse assessed as tumor volume at 3 mg/kg, iv dosed three times per week to the end of treatment measured on day 21 (reference value: 1272+/- 273 mm3); assay type: functional
HT-29 [18] = assay: Antitumor activity against human HT-29 cells xenografted in mouse assessed as tumor volume at 0.5 mg/kg, iv dosed three times per week to the end of treatment measured on day 17 (reference value: 807 +/- 197 mm3); assay type: functional
HT-29 [19] = assay: Antitumor activity against human HT-29 cells xenografted in mouse assessed as tumor volume at 0.5 mg/kg, iv dosed three times per week to the end of treatment measured on day 14 (reference value: 677 +/- 115 mm3); assay type: functional
Mus musculus [20] = assay: Toxicity in human HT-29 cells xenografted mouse assessed as body weight level at 3 mg/kg, iv dosed three times per week to the end of treatment measured on day 17 (reference value: 22 +/- 1.7 g); assay type: organism-based; set-up: dose 3 mg/kg, route intravenous; settings: in vivo
HT-29 [21] = assay: Antitumor activity against human HT-29 cells xenografted in mouse assessed as relative tumor increment rate at 0.5 mg/kg, iv dosed three times per week to the end of treatment relative to untreated control; assay type: functional
Mus musculus [22] = assay: Toxicity in human HT-29 cells xenografted mouse assessed as body weight level at 0.5 mg/kg, iv dosed three times per week to the end of treatment measured on day 3 (reference value: 20.7 +/- 1.2 g); assay type: organism-based; set-up: dose 0.5 mg/kg, route intravenous; settings: in vivo
Mus musculus [23] = assay: Toxicity in human HT-29 cells xenografted mouse assessed as induction of anaphylactic reaction at 0.5 mg/kg, iv dosed three times per week to the end of treatment; assay type: organism-based; set-up: dose 0.5 mg/kg, route intravenous; settings: in vivo
Mus musculus [24] = assay: Toxicity in human HT-29 cells xenografted mouse assessed as body weight level at 0.5 mg/kg, iv dosed three times per week to the end of treatment measured on day 7 (reference value: 21.7 +/- 1 g); assay type: organism-based; set-up: dose 0.5 mg/kg, route intravenous; settings: in vivo
HT-29 [25] = assay: Antitumor activity against human HT-29 cells xenografted in mouse assessed as tumor volume at 0.5 mg/kg, iv dosed three times per week to the end of treatment measured on day 3 (reference value: 168 +/- 46 mm3); assay type: functional
Mus musculus [26] = assay: Toxicity in human HT-29 cells xenografted mouse assessed as body weight level at 3 mg/kg, iv dosed three times per week to the end of treatment measured on day 7 (reference value: 21.7 +/- 1 g); assay type: organism-based; set-up: dose 3 mg/kg, route intravenous; settings: in vivo
HT-29 [27] = assay: Antitumor activity against human HT-29 cells xenografted in mouse assessed as tumor volume at 0.5 mg/kg, iv dosed three times per week to the end of treatment measured on day 21 (reference value: 1272+/- 273 mm3); assay type: functional
Mus musculus [28] = assay: Toxicity in human HT-29 cells xenografted mouse assessed as body weight level at 0.5 mg/kg, iv dosed three times per week to the end of treatment measured on day 21 (reference value: 21.2 +/- 1.6 g); assay type: organism-based; set-up: dose 0.5 mg/kg, route intravenous; settings: in vivo
Mus musculus [29] = assay: Toxicity in human HT-29 cells xenografted mouse assessed as induction of overt toxic symptoms at 3 mg/kg, iv dosed three times per week to the end of treatment; assay type: organism-based; set-up: dose 3 mg/kg, route intravenous; settings: in vivo
Mus musculus [30] = assay: Toxicity in human HT-29 cells xenografted mouse assessed as body weight level at 3 mg/kg, iv dosed three times per week to the end of treatment measured on day 10 (reference value: 22.4 +/- 1.3 g); assay type: organism-based; set-up: dose 3 mg/kg, route intravenous; settings: in vivo
HT-29 [31] = assay: Antitumor activity against human HT-29 cells xenografted in mouse assessed as tumor volume at 0.5 mg/kg, iv dosed three times per week to the end of treatment measured on day 10 (reference value: 386 +/- 77 mm3); assay type: functional
Mus musculus [32] = assay: Toxicity in human HT-29 cells xenografted mouse assessed as body weight level at 3 mg/kg, iv dosed three times per week to the end of treatment measured on day 14 (reference value: 22.7 +/- 1.5 g); assay type: organism-based; set-up: dose 3 mg/kg, route intravenous; settings: in vivo
HT-29 [33] = assay: Antitumor activity against human HT-29 cells xenografted in mouse assessed as tumor volume at 3 mg/kg, iv dosed three times per week to the end of treatment measured on day 14 (reference value: 677 +/- 115 mm3); assay type: functional
HT-29 [34] = assay: Antitumor activity against human HT-29 cells xenografted in mouse assessed as tumor volume at 0.5 mg/kg, iv dosed three times per week to the end of treatment measured on day 7 (reference value: 229 +/- 57 mm3); assay type: functional
[35] = Stability in pH 7.4 PBS buffer assessed as formation of carboxylate forms at 1 uM incubated at 37 degC by HPLC method; assay type: physicochemical; settings: pH 7.4, 1 µM
Mus musculus [36] = assay: Toxicity in human HT-29 cells xenografted mouse assessed as lethal toxicity at 0.5 mg/kg, iv dosed three times per week to the end of treatment; assay type: organism-based; set-up: dose 0.5 mg/kg, route intravenous; settings: in vivo
Mus musculus [37] = assay: Toxicity in human HT-29 cells xenografted mouse assessed as induction of overt toxic symptoms at 0.5 mg/kg, iv dosed three times per week to the end of treatment; assay type: organism-based; set-up: dose 0.5 mg/kg, route intravenous; settings: in vivo
[38] = Solubility in water; assay type: physicochemical

For `CC[C@]1(O)c2cc3n(c(=O)c2COC(=O)[C@H]1OC)Cc1c-3nc2cc3c(cc2c1-c1ccncc1)OCO3.Cl`, the Activity (Mus musculus [1]) was 22.2 g, the Activity (Mus musculus [2]) was “Non-toxic” and the Activity (HT-29 [3]) was 93 mm3. For the same molecule, the Activity (Mus musculus [4]) was 19.8 g, the “Ratio IC50” value (HCT-116) was 20 and the IC50 [5] was 0.628 nM. The IC50 (HT-29 [6]) was 3.41 nM, the T/C (HT-29 [7]) was 0% and the Activity (HT-29 [8]) was 124 mm3. It also gave a remaining at 3 h, 1 µM [9] of 55%, an Activity (HT-29 [10]) of 52 mm3 and an Activity (Mus musculus [11]) of -2.6%. The Activity (HT-29 [12]) was 15 mm3, the Activity (Mus musculus [13]) was 22.5 g and the Activity (Mus musculus [14]) was “Non-toxic”. It also gave an Activity (Mus musculus [15]) of 22 g, an Activity (Mus musculus [16]) of 18.7 g and an Activity (HT-29 [17]) of 0 mm3. For the same molecule, the Activity (HT-29 [18]) was 380 mm3, the Activity (HT-29 [19]) was 327 mm3 and the Activity (Mus musculus [20]) was 18.4 g. For the same molecule, the T/C (HT-29 [21]) was 42.84%, the Activity (Mus musculus [22]) was 20.5 g and the Activity (Mus musculus [23]) was “Non-toxic”. It also gave an Activity (Mus musculus [24]) of 21.4 g, an Activity (HT-29 [25]) of 156 mm3 and an Activity (Mus musculus [26]) of 18.6 g. For the same molecule, the Activity (HT-29 [27]) was 550 mm3, the Activity (Mus musculus [28]) was 21.3 g and the Activity (Mus musculus [29]) was “Non-toxic”. For the same molecule, the Activity (Mus musculus [30]) was 16.8 g, the Activity (HT-29 [31]) was 262 mm3 and the Activity (Mus musculus [32]) was 18.1 g. For the same molecule, the Activity (HT-29 [33]) was 51 mm3, the Activity (HT-29 [34]) was 187 mm3 and the Stability [35] was “Stable”. For the same molecule, the Activity (Mus musculus [36]) was “Non-toxic”, the Activity (Mus musculus [37]) was “Non-toxic” and the solubility [38] was 1200 µg/mL.
